Source: PubChem BioAssay AID1195 (EPA DSSTox, 2008)

System: human maximum recommended daily dose, FDA database
Experiment: DSSTox (FDAMDD) FDA Maximum (Recommended) Daily Dose Database
Conditions: hits give low values
Outline: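 MRDD values come from clinical trials with daily oral dosing, usually for 3–12 months, for the average adult, in mg/day converted to mg/kg-bw/day assuming 60 kg. Antineoplastic mg/m2 doses are divided by 37. Activity score maps log10(1/MRDD mmol) onto 1–100.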

[1] = TherapeuticCategory: sedative, hypnotic
[2] = TherapeuticCategory: anticholinergic
[3] = TherapeuticCategory: antineoplastic
[4] = TherapeuticCategory: narcotic analgesic
[5] = TherapeuticCategory: anticonvulsant
[6] = TherapeuticCategory: antihistaminic
[7] = TherapeuticCategory: antidepressant
[8] = TherapeuticCategory: glucocorticoid
[9] = TherapeuticCategory: antibacterial
[10] = TherapeuticCategory: antipsychotic
[11] = TherapeuticCategory: anthelmintic
[12] = TherapeuticCategory: antihypertensive

CC(C)(Oc1ccc(Cl)cc1)C(=O)NC(=O)NCN1CCOCC1
maximum recommended daily dose (mmol/kg-bw/day) (TherapeuticCategory: antithrombotic): 0.112

COc1cc2c(cc1OC)C(Cc1cc(OC)c(OC)c(OC)c1)[N+](C)(CCCOC(=O)CC/C=C/CCC(=O)OCCC[N+]1(C)CCc3cc(OC)c(OC)cc3C1Cc1cc(OC)c(OC)c(OC)c1)CC2 (centres undefined)
maximum recommended daily dose (mmol/kg-bw/day) (TherapeuticCategory: skeletal muscle relaxant, neuromuscular blocker): 0.000227

O=P(O)(O)OCC(Cl)(Cl)Cl
maximum recommended daily dose (mmol/kg-bw/day) [1]: 0.145

C[N+]1(C)CCN(CC(O)(c2ccccc2)C2CCCCC2)CC1 (centres undefined)
maximum recommended daily dose (mmol/kg-bw/day) [2]: 0.0039

Nc1ccn([C@H]2CS[C@@H](CO)O2)c(=O)n1
maximum recommended daily dose (mmol/kg-bw/day) (TherapeuticCategory: antiviral): 0.0218

CCCCC[C@H](O)/C=C/[C@H]1[C@H](O)CC(=O)[C@@H]1C/C=C\CCCC(=O)O
maximum recommended daily dose (mmol/kg-bw/day) (TherapeuticCategory: oxytocic, abortifacient): 7.09e-05

C[C@]12CC[C@H]3[C@@H](CCC4=CC(=O)CC[C@@H]43)[C@@H]1CC[C@@H]2O
maximum recommended daily dose (mmol/kg-bw/day) (TherapeuticCategory: anabolic): 0.0121

CC(N)Cc1ccccc1 (centres undefined)
maximum recommended daily dose (mmol/kg-bw/day) (TherapeuticCategory: CNS stimulant, anorexic): 0.0074

O=C(CCBr)N1CCN(C(=O)CCBr)CC1
maximum recommended daily dose (mmol/kg-bw/day) [3]: 0.00843

Cc1c(C(C)C)c(=O)n(-c2ccccc2)n1C
maximum recommended daily dose (mmol/kg-bw/day) (TherapeuticCategory: analgesic, antipyretic, antiphlogistic): 0.13

C#CCN(C)[C@H](C)Cc1ccccc1
maximum recommended daily dose (mmol/kg-bw/day) (TherapeuticCategory: antiparkinsonian): 0.000892

C[C@@H]1C[C@@]2(C)[C@@H](CC[C@@H]3[C@@H]2CC[C@]2(C)[C@@H](O)CC[C@@H]32)CC1=O
maximum recommended daily dose (mmol/kg-bw/day) [3]: 0.00549

CC(=O)N(O)CCCCCNC(=O)CCC(=O)N(O)CCCCCNC(=O)CCC(=O)N(O)CCCCCN
maximum recommended daily dose (mmol/kg-bw/day) (TherapeuticCategory: parenteral chelating agent): 0.178

NC(CO)(CO)CO
maximum recommended daily dose (mmol/kg-bw/day) (TherapeuticCategory: alkalizer): 2.48

CCOC(=O)[C@]1(c2ccccc2)CCC=C[C@H]1N(C)C
maximum recommended daily dose (mmol/kg-bw/day) [4]: 0.0122

CCC1(CC)C(=O)NC(=O)N(C)C1=O
maximum recommended daily dose (mmol/kg-bw/day) [5]: 0.0252

CCO
maximum recommended daily dose (mmol/kg-bw/day) (TherapeuticCategory: topical antiseptic): 2.17

CN1CCC2=C(C1)C(c1ccccc1)c1ccccc12 (centres undefined)
maximum recommended daily dose (mmol/kg-bw/day) [6]: 0.00957

CC(C)(C)NC[C@H](O)COc1ccccc1C1CCCC1
maximum recommended daily dose (mmol/kg-bw/day) (TherapeuticCategory: antihypertensive, antianginal, antiarrhythmic): 0.00456

CC(=O)c1ccc(S(=O)(=O)NC(=O)NC2CCCCC2)cc1
maximum recommended daily dose (mmol/kg-bw/day) (TherapeuticCategory: antidiabetic): 0.0771

CC(C)NCC(O)c1ccc(O)c(O)c1 (centres undefined)
maximum recommended daily dose (mmol/kg-bw/day) (TherapeuticCategory: bronchodilator): 0.000791

CNCCC=C1c2ccccc2CCc2ccccc21
maximum recommended daily dose (mmol/kg-bw/day) [7]: 0.00634

CCCCC(=O)O[C@]1(C(=O)COC(C)=O)CC[C@H]2[C@@H]3CCC4=CC(=O)C=C[C@]4(C)[C@H]3[C@@H](O)C[C@@]21C
maximum recommended daily dose (mmol/kg-bw/day) [8]: 0.00684

CC(C)N=c1cc2n(-c3ccc(Cl)cc3)c3ccccc3nc-2cc1Nc1ccc(Cl)cc1
maximum recommended daily dose (mmol/kg-bw/day) [9]: 0.00703

CN(C)CC/C=C1\c2ccccc2CSc2ccccc21
maximum recommended daily dose (mmol/kg-bw/day) [7]: 0.00846

COc1ccc2c(c1)[C@]13CCCC[C@@H]1[C@H](C2)N(C)CC3
maximum recommended daily dose (mmol/kg-bw/day) (TherapeuticCategory: antitussive): 0.00737

CC(=O)Nc1nnc(S(N)(=O)=O)s1
maximum recommended daily dose (mmol/kg-bw/day) (TherapeuticCategory: carbonic anhydrase inhibitor, diuretic): 0.0751

CC(C)[C@H](N)C(=O)OCCOCn1cnc2c(=O)[nH]c(N)nc21
maximum recommended daily dose (mmol/kg-bw/day) (TherapeuticCategory: antiviral): 0.154

Cc1ncsc1CCCl
maximum recommended daily dose (mmol/kg-bw/day) (TherapeuticCategory: sedative, hypnotic, anticonvulsant): 0.0396

Cc1ccc(/C(=C/CN2CCCC2)c2ccccn2)cc1
maximum recommended daily dose (mmol/kg-bw/day) [6]: 0.0006

CN1CCCN=C1COC(=O)C(O)(c1ccccc1)C1CCCCC1 (centres undefined)
maximum recommended daily dose (mmol/kg-bw/day) [2]: 0.00145

Oc1ccc2c3c1O[C@H]1[C@@H](O)CC[C@@]4(O)[C@@H](C2)N(CC2CCC2)CC[C@]314
maximum recommended daily dose (mmol/kg-bw/day) [4]: 0.0028

CC(=O)OCC(=O)[C@@]1(O)CC[C@H]2[C@@H]3CCC4=CC(=O)CC[C@]4(C)[C@@]3(F)[C@@H](O)C[C@@]21C
maximum recommended daily dose (mmol/kg-bw/day) (TherapeuticCategory: mineralcorticoid): 3.95e-06

COc1ccc(OC)c(C(O)CNC(=O)CN)c1 (centres undefined)
maximum recommended daily dose (mmol/kg-bw/day) (TherapeuticCategory: adrenergic, antihypotensive): 0.000983

N[C@@H](CS)C(=O)O
maximum recommended daily dose (mmol/kg-bw/day) (TherapeuticCategory: none): 0.825

CO[C@@H]1[C@@H](O[C@@H]2O[C@H](C)[C@@H](O[C@H]3C[C@@](C)(O)[C@@H](O)[C@H](C)O3)[C@H](N(C)C)[C@H]2O)[C@@H](CC=O)C[C@@H](C)[C@@H](O[C@@H]2CC[C@H](N(C)C)[C@@H](C)O2)/C=C/C=C/C[C@@H](C)OC(=O)C[C@H]1OC(C)=O
maximum recommended daily dose (mmol/kg-bw/day) [9]: 0.0754

C[N+]1(C)CCC(=C(c2ccccc2)c2ccccc2)CC1
maximum recommended daily dose (mmol/kg-bw/day) [2]: 0.0341

C[C@@H]1CN(c2c(F)c(N)c3c(=O)c(C(=O)O)cn(C4CC4)c3c2F)C[C@H](C)N1
maximum recommended daily dose (mmol/kg-bw/day) [9]: 0.017

Cc1c(-c2ccccc2)oc2c(C(=O)OCCN3CCCCC3)cccc2c1=O
maximum recommended daily dose (mmol/kg-bw/day) (TherapeuticCategory: antispasmodic): 0.034

CN1C(=O)C(O)N=C(c2ccccc2)c2cc(Cl)ccc21 (centres undefined)
maximum recommended daily dose (mmol/kg-bw/day) [1]: 0.000831

CC1=C(/C=C/C(C)=C/C=C/C(C)=C/CO)C(C)(C)CCC1
maximum recommended daily dose (mmol/kg-bw/day) (TherapeuticCategory: antixerophthalmic vitamin): 0.0032

CN[C@@H]1[C@H](O[C@H]2[C@H](O[C@H]3[C@H](O)[C@@H](O)[C@H](N=C(N)N)[C@@H](O)[C@@H]3N=C(N)N)O[C@@H](C)[C@]2(O)C=O)O[C@@H](CO)[C@H](O[C@@H]2O[C@H](CO)[C@@H](O)[C@H](O)[C@@H]2O)[C@H]1O
maximum recommended daily dose (mmol/kg-bw/day) [9]: 0.0269

CC(=O)NO
maximum recommended daily dose (mmol/kg-bw/day) (TherapeuticCategory: antiurolithic, antibacterial adjunct): 0.222

Nc1ccc(C(=O)NCC(=O)O)cc1
maximum recommended daily dose (mmol/kg-bw/day) (TherapeuticCategory: anti inflammatory, antifungal): 0.0515

O=C(O)c1cc(=O)c2c(OCC(O)COc3cccc4oc(C(=O)O)cc(=O)c34)cccc2o1
maximum recommended daily dose (mmol/kg-bw/day) (TherapeuticCategory: prophylactic antiasthmatic, antiallergic): 0.0284

CC[C@H](OC(C)=O)C(C[C@H](C)N(C)C)(c1ccccc1)c1ccccc1
maximum recommended daily dose (mmol/kg-bw/day) (TherapeuticCategory: treatment of narcotic addiction): 0.0113

CCN(CC)C(=O)N[C@H]1C=C2c3cccc4[nH]cc(c34)C[C@H]2N(C)C1
maximum recommended daily dose (mmol/kg-bw/day) (TherapeuticCategory: antimigraine, prolactin inhibitor): 0.000246

Cn1nnnc1SCC1=C(C(=O)O)N2C(=O)[C@@H](NC(=O)[C@H](O)c3ccccc3)[C@H]2SC1
maximum recommended daily dose (mmol/kg-bw/day) [9]: 0.216

CC(C)CC1Nc2cc(Cl)c(S(N)(=O)=O)cc2S(=O)(=O)N1 (centres undefined)
maximum recommended daily dose (mmol/kg-bw/day) (TherapeuticCategory: diuretic, antihypertensive): 0.000707

CN(Cc1cnc2nc(N)nc(N)c2n1)c1ccc(C(=O)N[C@@H](CCC(=O)O)C(=O)O)cc1
maximum recommended daily dose (mmol/kg-bw/day) (TherapeuticCategory: antineoplastic, antirheumatic): 0.0011

CCC(=O)c1ccc(O)cc1
maximum recommended daily dose (mmol/kg-bw/day) (TherapeuticCategory: pituitary gonadotrophic hormone inhibitor): 0.333

OCc1ccccc1
maximum recommended daily dose (mmol/kg-bw/day) (TherapeuticCategory: none): 0.0462

O=C(CCCN1CC=C(n2c(=O)[nH]c3ccccc32)CC1)c1ccc(F)cc1
maximum recommended daily dose (mmol/kg-bw/day) [10]: 0.000725

C[C@](O)(CS(=O)(=O)c1ccc(F)cc1)C(=O)Nc1ccc(C#N)c(C(F)(F)F)c1
maximum recommended daily dose (mmol/kg-bw/day) (TherapeuticCategory: antiandrogen, antineoplastic): 0.00194

Cc1cccc(Nc2ccncc2S(=O)(=O)NC(=O)NC(C)C)c1
maximum recommended daily dose (mmol/kg-bw/day) (TherapeuticCategory: diuretic): 0.00956

Cn1nnnc1SCC1=C(C(=O)O)N2C(=O)[C@@H](NC(=O)[C@H](OC=O)c3ccccc3)[C@H]2SC1
maximum recommended daily dose (mmol/kg-bw/day) [9]: 0.195

C=CCOc1ccc(CC(=O)O)cc1Cl
maximum recommended daily dose (mmol/kg-bw/day) (TherapeuticCategory: analgesic, antipyretic, anti inflammatory): 0.00737

CCC1(c2ccc(N)cc2)CCC(=O)NC1=O (centres undefined)
maximum recommended daily dose (mmol/kg-bw/day) [5]: 0.0719

CC(C)(O)CC(C)(O)c1ccc(Cl)cc1 (centres undefined)
maximum recommended daily dose (mmol/kg-bw/day) [7]: 0.0437

CC(C)=CCN1CC[C@@]2(C)c3cc(O)ccc3C[C@@H]1[C@@H]2C
maximum recommended daily dose (mmol/kg-bw/day) [4]: 0.00876

CC(C(=O)O)c1ccc(C(=O)c2ccccc2)s1 (centres undefined)
maximum recommended daily dose (mmol/kg-bw/day) (TherapeuticCategory: anti inflammatory): 0.0384

CCOC(=O)C1(c2ccccc2)CCN(CCc2ccc(N)cc2)CC1
maximum recommended daily dose (mmol/kg-bw/day) [4]: 0.00945

CCC(=O)c1ccc2c(c1)N(CCCN1CCN(CCO)CC1)c1ccccc1S2
maximum recommended daily dose (mmol/kg-bw/day) [10]: 0.0157

CCN[C@H]1C[C@H](C)S(=O)(=O)c2sc(S(N)(=O)=O)cc21
maximum recommended daily dose (mmol/kg-bw/day) (TherapeuticCategory: antiglaucomal agent, carbonic anhydrase inhibitor): 0.00308

COc1cc([C@@H]2c3cc4c(cc3C(O[C@@H]3O[C@@H]5COC(c6cccs6)O[C@H]5[C@H](O)[C@H]3O)C3COC(=O)[C@@H]32)OCO4)cc(OC)c1O (some centres undefined)
maximum recommended daily dose (mmol/kg-bw/day) [3]: 0.0107

c1ccc([C@H]2CN3CCSC3=N2)cc1
maximum recommended daily dose (mmol/kg-bw/day) [11]: 0.00408

OCCOCCN1CCN(C2=Nc3ccccc3Sc3ccccc32)CC1
maximum recommended daily dose (mmol/kg-bw/day) [10]: 0.0347

CC(=O)N[C@H]1[C@H]([C@H](O)[C@H](O)CO)OC(C(=O)O)=C[C@@H]1N=C(N)N
maximum recommended daily dose (mmol/kg-bw/day) (TherapeuticCategory: neuraminidase inhibitors): 0.001

CCC(=O)OCC(=O)[C@@]1(OC(=O)CC)[C@@H](C)C[C@H]2[C@@H]3CCC4=CC(=O)C=C[C@]4(C)[C@@]3(F)[C@@H](O)C[C@@]21C
maximum recommended daily dose (mmol/kg-bw/day) [8]: 0.000297

COC(=O)[C@H]1[C@H]2C[C@@H]3c4[nH]c5cc(OC)ccc5c4CCN3C[C@H]2C[C@@H](OC(=O)/C=C/c2cc(OC)c(OC)c(OC)c2)[C@@H]1OC
maximum recommended daily dose (mmol/kg-bw/day) [12]: 2.63e-05

CCc1cc2c(s1)N(C)C(=O)CN=C2c1ccccc1Cl
maximum recommended daily dose (mmol/kg-bw/day) (TherapeuticCategory: anxiolytic): 0.00314

C[C@H](CSC(=O)[C@@H](C)NC(=O)C1CCCCC1)C(=O)N1CCC[C@H]1C(=O)O
maximum recommended daily dose (mmol/kg-bw/day) [12]: 0.00251

CN1CCCN=C1/C=C/c1cccs1
maximum recommended daily dose (mmol/kg-bw/day) [11]: 0.0969

Nc1ncnc2nc[nH]c12
maximum recommended daily dose (mmol/kg-bw/day) (TherapeuticCategory: research): 0.111
